# In ChEMBL document CHEMBL1137777, “Design, synthesis, and evaluation of indolinones as triple angiokinase inhibitors and the discovery of a highly specific 6-methoxycarbonyl-substituted indolinone (BIBF 1120)” (J Med Chem, 2009):
# Key:
# [1] = target: Vascular endothelial growth factor receptor 2 (Homo sapiens, UniProt P35968); test: Inhibition of human VEGFR2 expressed in Sf9 cells
# [2] = test system: HeLa; test: Antiangiogenic activity against human HeLa cells assessed as inhibition of cell proliferation by [3H]thymidine incorporation assay; assay type: functional, cell-based
# [3] = Cmax in NMRI nu/nu mouse at 50 mg/kg, po administered as single dose; assay type: ADME, organism-based; parameters: dose 50 mg/kg, route oral; details: in vivo
# [4] = Half life in NMRI nu/nu mouse at 50 mg/kg, po administered as single dose; assay type: ADME, organism-based; parameters: dose 50 mg/kg, route oral; details: in vivo
# [5] = (§1) AUC in NMRI nu/nu mouse at 50 mg/kg, po administered as single dose; assay type: ADME, organism-based, Plasma; parameters: dose 50 mg/kg, route oral; details: NMRI nu/nu, plasma
# [6] = target: Fibroblast growth factor receptor 1 (Homo sapiens, UniProt P11362)
# Sequence of Fibroblast growth factor receptor 1 (P11362 whole entry): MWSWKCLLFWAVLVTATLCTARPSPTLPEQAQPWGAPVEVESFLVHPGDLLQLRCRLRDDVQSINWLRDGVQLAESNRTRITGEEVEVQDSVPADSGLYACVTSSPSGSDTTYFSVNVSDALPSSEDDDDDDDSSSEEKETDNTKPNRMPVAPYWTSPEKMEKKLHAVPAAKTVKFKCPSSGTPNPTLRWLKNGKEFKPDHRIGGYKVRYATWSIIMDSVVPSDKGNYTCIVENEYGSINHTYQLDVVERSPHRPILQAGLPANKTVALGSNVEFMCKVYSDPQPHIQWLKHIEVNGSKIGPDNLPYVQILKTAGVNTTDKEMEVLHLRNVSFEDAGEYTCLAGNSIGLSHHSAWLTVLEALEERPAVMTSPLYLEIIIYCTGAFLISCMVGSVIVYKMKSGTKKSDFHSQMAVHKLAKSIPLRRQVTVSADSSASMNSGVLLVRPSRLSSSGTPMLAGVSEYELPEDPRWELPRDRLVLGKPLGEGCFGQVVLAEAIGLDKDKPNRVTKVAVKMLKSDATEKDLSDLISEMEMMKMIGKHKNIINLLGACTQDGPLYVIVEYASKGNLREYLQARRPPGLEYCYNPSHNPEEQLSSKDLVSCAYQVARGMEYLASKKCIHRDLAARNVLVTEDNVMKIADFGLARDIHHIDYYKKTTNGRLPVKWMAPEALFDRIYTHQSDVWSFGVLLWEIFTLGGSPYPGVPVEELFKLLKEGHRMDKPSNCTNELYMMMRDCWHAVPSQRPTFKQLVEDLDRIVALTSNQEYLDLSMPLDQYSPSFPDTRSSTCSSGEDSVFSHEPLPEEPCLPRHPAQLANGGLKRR
# Description: Inhibition of human FGFR1
# [7] = target: Platelet-derived growth factor receptor alpha (Homo sapiens, UniProt P16234)
# Sequence of Platelet-derived growth factor receptor alpha (P16234 whole entry): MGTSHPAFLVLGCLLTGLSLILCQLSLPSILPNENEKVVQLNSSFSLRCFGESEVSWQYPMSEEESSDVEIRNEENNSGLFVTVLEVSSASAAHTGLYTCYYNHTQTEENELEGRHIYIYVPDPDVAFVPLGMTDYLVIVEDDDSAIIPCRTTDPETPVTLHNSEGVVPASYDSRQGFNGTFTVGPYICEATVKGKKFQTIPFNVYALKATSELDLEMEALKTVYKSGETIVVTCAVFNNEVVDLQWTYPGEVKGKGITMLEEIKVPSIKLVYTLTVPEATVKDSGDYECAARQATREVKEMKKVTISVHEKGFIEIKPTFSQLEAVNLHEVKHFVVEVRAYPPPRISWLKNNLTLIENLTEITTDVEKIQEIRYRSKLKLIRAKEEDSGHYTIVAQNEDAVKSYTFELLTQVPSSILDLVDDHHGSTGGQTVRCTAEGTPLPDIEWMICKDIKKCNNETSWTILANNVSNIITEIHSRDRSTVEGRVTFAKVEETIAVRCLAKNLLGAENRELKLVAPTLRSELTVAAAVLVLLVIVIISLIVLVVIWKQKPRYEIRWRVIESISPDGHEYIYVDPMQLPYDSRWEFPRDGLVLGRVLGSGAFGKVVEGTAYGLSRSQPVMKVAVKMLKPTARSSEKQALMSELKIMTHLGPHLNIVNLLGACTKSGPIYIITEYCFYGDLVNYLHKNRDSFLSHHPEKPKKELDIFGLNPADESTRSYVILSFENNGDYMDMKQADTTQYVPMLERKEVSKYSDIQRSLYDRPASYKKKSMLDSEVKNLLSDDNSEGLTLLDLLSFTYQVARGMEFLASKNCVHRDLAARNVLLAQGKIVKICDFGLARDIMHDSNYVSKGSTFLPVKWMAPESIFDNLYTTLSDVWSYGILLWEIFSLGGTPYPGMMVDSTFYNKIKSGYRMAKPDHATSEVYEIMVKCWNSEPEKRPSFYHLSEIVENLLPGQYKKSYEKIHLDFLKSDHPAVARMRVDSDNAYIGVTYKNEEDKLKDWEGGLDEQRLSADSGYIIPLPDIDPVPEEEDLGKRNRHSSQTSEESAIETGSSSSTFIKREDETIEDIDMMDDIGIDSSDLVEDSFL
# Description: Inhibition of human PDGFRalpha
# [8] = target: Vascular endothelial growth factor receptor 1 (Homo sapiens, UniProt P17948)
# Description: Inhibition of human VEGFR1
# [9] = target: Vascular endothelial growth factor receptor 3 (Homo sapiens, UniProt P35916)
# Description: Inhibition of human VEGFR3
# [10] = test system: HUVEC; test: cells; details: Homo sapiens, 3 h
# Description: Antiangiogenic activity in HUVEC assessed as inhibition of VEGF-induced cell proliferation by [3H]thymidine incorporation assay
# [11] = target: Serine/threonine-protein kinase PLK1 (Homo sapiens, UniProt P53350); test: Inhibition of human Plk1
# Sequence of Serine/threonine-protein kinase PLK1 (P53350 whole entry): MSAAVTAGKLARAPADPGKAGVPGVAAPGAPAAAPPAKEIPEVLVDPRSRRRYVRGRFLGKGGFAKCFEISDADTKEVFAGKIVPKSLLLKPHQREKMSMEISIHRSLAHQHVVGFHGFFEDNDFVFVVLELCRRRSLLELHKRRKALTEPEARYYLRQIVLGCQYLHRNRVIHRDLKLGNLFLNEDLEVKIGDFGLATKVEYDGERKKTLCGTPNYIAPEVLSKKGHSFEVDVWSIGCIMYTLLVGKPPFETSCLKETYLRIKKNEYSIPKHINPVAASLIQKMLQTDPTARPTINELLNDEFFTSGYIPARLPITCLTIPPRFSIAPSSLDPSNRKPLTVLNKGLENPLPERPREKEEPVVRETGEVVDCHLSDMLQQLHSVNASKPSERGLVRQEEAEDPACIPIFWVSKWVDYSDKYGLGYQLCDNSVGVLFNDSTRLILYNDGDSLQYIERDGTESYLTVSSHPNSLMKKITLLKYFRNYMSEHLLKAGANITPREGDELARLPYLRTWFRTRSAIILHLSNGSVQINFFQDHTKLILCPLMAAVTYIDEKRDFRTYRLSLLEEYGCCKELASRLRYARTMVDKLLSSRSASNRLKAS
# [12] = test system: Mus musculus; test: as §1; assay type: ADME, organism-based, Plasma; parameters: dose 50 mg/kg, route oral; details: in vivo
# [13] = Clearance in NMRI nu/nu mouse at 50 mg/kg, po or 10 mg/kg, iv administered as single dose; assay type: ADME, organism-based; details: in vivo
# [14] = Volume of distribution in NMRI nu/nu mouse at 50 mg/kg, po or 10 mg/kg, iv administered as single dose; assay type: ADME, organism-based; details: in vivo
# [15] = Oral bioavailability in NMRI nu/nu mouse at 50 mg/kg administered as single dose; assay type: ADME, organism-based; details: in vivo
# [16] = Plasma concentration in NMRI nu/nu mouse at 50 mg/kg, po administered as single dose after 2 hrs; assay type: ADME, organism-based; parameters: dose 50 mg/kg, route oral
# [17] = Plasma concentration in NMRI nu/nu mouse at 50 mg/kg, po administered as single dose after 24 hrs; assay type: ADME, organism-based; parameters: dose 50 mg/kg, route oral
# [18] = test system: Calu-6; test: Antiangiogenic activity against human Calu6 cells assessed as inhibition of cell proliferation by [3H]thymidine incorporation assay; assay type: functional, cell-based
# [19] = test system: FaDu; test: Antiangiogenic activity against human FADU cells assessed as inhibition of cell proliferation by [3H]thymidine incorporation assay; assay type: functional, cell-based
# [20] = test system: FaDu; test: Antitumor activity against human FADU cells xenografted NMRI nu/nu mouse assessed as inhibition of mean tumor volume growth at 100 mg/kg, po qd after 21 days relative to control; assay type: functional
# [21] = test system: FaDu; test: Antitumor activity against human FADU cells xenografted NMRI nu/nu mouse assessed as inhibition of mean tumor volume growth at 50 mg/kg, po qd after 21 days relative to control; assay type: functional
# [22] = test system: FaDu; test: Antitumor activity against human FADU cells xenografted NMRI nu/nu mouse assessed as inhibition of mean tumor volume growth at 50 mg/kg, po bid after 21 days relative to control; assay type: functional
# [23] = test system: FaDu; test: Antitumor activity against human FADU cells xenografted NMRI nu/nu mouse assessed as inhibition of mean tumor volume growth at 25 mg/kg, po qd after 21 days relative to control; assay type: functional
# [24] = test system: FaDu; test: Antitumor activity against human FADU cells xenografted NMRI nu/nu mouse assessed as inhibition of mean tumor volume growth at 10 mg/kg, po qd after 21 days relative to control; assay type: functional
# [25] = test system: CAKI-1; test: Antitumor activity against human Caki1 cells xenografted NMRI nu/nu mouse assessed as inhibition of mean tumor volume growth at 100 mg/kg, po qd after 21 days relative to control; assay type: functional
# [26] = test system: CAKI-1; test: Antitumor activity against human Caki1 cells xenografted NMRI nu/nu mouse assessed as inhibition of mean tumor volume growth at 50 mg/kg, po qd after 21 days relative to control; assay type: functional
# [27] = test system: CAKI-1; test: Antitumor activity against human Caki1 cells xenografted NMRI nu/nu mouse assessed as inhibition of mean tumor volume growth at 10 mg/kg, po qd after 21 days relative to control; assay type: functional
# [28] = test system: HT-29; test: Antitumor activity against human HT-29 cells xenografted NMRI nu/nu mouse assessed as inhibition of mean tumor volume growth at 100 mg/kg, po qd after 21 days relative to control; assay type: functional
# [29] = test system: SK-OV-3; test: Antitumor activity against human SKOV3 cells xenografted NMRI nu/nu mouse assessed as inhibition of mean tumor volume growth at 50 mg/kg, po qd after 21 days relative to control; assay type: functional
# [30] = test system: Calu-6; test: Antitumor activity against human Calu6 cells xenografted NMRI nu/nu mouse assessed as inhibition of mean tumor volume growth at 50 mg/kg, po qd after 21 days relative to control; assay type: functional
# [31] = Antitumor activity against human PAC120 cells xenografted NMRI nu/nu mouse assessed as inhibition of mean tumor volume growth at 100 mg/kg, po qd after 21 days relative to control; assay type: functional
# [32] = target: Insulin-like growth factor 1 receptor (Homo sapiens, UniProt P08069); test: Inhibition of human IGFR1
# [33] = target: Insulin receptor (Homo sapiens, UniProt P06213); test: Inhibition of human InsR
# [34] = target: Cyclin-dependent kinase 1 (Homo sapiens, UniProt P06493); test: Inhibition of human CDK1
# [35] = target: Cyclin-dependent kinase 4 (Homo sapiens, UniProt P11802); test: Inhibition of human CDK4
# [36] = target: Epidermal growth factor receptor (Homo sapiens, UniProt P00533); test: Inhibition of human EGFR
# Sequence of Epidermal growth factor receptor (P00533 whole entry): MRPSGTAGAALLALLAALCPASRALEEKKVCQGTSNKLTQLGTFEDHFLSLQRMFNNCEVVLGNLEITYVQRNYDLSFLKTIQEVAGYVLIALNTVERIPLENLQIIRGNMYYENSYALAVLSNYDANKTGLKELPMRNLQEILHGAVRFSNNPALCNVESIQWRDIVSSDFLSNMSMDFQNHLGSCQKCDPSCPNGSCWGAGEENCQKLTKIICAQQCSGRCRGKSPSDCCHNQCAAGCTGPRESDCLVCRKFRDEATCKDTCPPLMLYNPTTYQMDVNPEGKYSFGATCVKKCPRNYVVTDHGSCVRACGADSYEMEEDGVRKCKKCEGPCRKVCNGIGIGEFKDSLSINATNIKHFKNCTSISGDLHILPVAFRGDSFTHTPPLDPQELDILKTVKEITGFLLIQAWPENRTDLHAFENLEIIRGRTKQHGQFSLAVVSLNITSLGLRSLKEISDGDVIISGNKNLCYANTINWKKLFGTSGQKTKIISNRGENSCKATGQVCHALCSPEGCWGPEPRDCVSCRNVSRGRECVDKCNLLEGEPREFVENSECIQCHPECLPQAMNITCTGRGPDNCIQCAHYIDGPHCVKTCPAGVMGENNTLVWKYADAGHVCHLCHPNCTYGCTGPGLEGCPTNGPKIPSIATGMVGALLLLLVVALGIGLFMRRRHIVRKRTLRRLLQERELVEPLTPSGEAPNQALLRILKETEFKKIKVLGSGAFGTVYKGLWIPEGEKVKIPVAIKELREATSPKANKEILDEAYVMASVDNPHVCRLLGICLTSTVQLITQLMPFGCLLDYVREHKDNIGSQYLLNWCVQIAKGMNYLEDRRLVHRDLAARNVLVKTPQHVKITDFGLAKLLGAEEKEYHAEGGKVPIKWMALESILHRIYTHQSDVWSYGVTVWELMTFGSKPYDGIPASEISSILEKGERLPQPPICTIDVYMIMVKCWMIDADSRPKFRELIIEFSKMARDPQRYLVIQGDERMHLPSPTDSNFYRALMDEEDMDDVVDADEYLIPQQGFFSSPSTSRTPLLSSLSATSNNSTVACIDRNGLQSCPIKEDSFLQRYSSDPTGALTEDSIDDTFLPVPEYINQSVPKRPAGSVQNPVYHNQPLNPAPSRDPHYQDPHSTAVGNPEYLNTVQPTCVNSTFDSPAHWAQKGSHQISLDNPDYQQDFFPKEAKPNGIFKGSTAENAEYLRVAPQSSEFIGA
# [37] = target: Receptor tyrosine-protein kinase erbB-2 (Homo sapiens, UniProt P04626); test: Inhibition of human HER2
# [38] = Plasma concentration in NMRI nu/nu mouse at 40 mg/kg, po administered as single dose after 2 hrs; assay type: ADME, organism-based; parameters: dose 40 mg/kg, route oral
# [39] = Plasma concentration in NMRI nu/nu mouse at 40 mg/kg, po administered as single dose after 24 hrs; assay type: ADME, organism-based; parameters: dose 40 mg/kg, route oral
# Sequence of Vascular endothelial growth factor receptor 2 (P35968 whole entry): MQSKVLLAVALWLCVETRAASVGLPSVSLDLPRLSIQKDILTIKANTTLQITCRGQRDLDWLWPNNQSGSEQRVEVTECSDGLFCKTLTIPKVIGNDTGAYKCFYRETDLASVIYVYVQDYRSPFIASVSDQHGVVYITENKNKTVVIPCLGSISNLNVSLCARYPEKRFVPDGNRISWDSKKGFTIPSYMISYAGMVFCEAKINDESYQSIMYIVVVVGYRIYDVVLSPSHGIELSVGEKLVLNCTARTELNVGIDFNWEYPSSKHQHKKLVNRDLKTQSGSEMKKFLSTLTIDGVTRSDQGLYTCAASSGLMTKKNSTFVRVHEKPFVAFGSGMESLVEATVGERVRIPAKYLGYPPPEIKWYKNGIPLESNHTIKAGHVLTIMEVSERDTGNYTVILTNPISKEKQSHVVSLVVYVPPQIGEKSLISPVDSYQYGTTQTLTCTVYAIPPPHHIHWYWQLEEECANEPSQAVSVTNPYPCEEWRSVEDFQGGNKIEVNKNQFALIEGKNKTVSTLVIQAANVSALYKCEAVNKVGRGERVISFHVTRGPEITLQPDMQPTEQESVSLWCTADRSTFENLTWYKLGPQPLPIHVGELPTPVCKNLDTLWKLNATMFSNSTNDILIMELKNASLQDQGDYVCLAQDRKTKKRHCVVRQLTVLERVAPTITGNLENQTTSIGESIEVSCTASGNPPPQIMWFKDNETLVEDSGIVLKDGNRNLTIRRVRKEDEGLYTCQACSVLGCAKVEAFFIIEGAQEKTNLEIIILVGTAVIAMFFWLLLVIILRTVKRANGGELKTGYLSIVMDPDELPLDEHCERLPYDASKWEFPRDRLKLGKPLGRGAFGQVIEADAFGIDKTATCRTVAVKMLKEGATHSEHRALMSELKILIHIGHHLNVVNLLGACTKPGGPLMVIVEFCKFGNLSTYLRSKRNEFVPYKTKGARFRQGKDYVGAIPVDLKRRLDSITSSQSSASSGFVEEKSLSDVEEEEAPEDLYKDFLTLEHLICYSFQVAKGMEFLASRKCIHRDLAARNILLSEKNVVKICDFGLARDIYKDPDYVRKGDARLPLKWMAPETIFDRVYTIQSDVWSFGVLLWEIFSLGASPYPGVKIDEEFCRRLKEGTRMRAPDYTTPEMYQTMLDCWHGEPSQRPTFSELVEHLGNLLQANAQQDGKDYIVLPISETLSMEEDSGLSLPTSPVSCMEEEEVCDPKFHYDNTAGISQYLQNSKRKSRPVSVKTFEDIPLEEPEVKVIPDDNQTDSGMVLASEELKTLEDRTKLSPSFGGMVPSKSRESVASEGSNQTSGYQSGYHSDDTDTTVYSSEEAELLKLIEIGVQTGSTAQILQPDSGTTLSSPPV
smiles,measurement,setting,value
COC(=O)c1ccc2c(c1)NC(=O)/C2=C(\Nc1ccc(CN2CCCC2=O)cc1)c1ccccc1,IC50,[1],245 nM
COC(=O)c1ccc2c(c1)NC(=O)/C2=C(\Nc1ccc(CN2CCCCC2)cc1)c1ccccc1,IC50,[1],36 nM
same,EC50,[2],> 1000 nM
same,Cmax,[3],952 ng/mL
same,half-life,[4],3.5 h
same,AUC,[5],5250 ng·h/mL
same,IC50,[6],71 nM
same,IC50,[7],54 nM
same,IC50,[8],146 nM
same,IC50,[9],32 nM
same,EC50,[10],103 nM
COC(=O)c1ccc2c(c1)NC(=O)/C2=C(\NC1CCN(C)CC1)c1ccccc1,IC50,[1],> 10000 nM
COC(=O)c1ccc2c(c1)NC(=O)/C2=C(\Nc1ccc(N(C)C(=O)CN2CCN(C)CC2)cc1)c1ccccc1 [NINTEDANIB],IC50,[11],> 10000 nM
same,EC50,[2],> 1000 nM
same,Cmax,[3],1090 nM
same,half-life,[4],5 h
same,AUC,[12],2.75 µM·h
same,clearance,[13],173 mL/min/kg
same,Vd,[14],32 L/kg
same,bioavailability,[15],45%
same,concentration at 2 h,[16],923 nM
same,concentration at 24 h,[17],8 nM
same,EC50,[18],> 1000 nM
same,EC50,[19],> 1000 nM
same,T/C,[20],11%
same,T/C,[21],14%
same,T/C,[22],15%
same,T/C,[23],46%
same,T/C,[24],82%
same,T/C,[25],16%
same,T/C,[26],25%
same,T/C,[27],71%
same,T/C,[28],16%
same,T/C,[29],19%
same,T/C,[30],24%
same,T/C,[31],34%
same,IC50,[10],10 nM
COC(=O)c1ccc2c(c1)NC(=O)/C2=C(\Nc1ccc(N(CCCN(C)C)C(C)=O)cc1)c1ccccc1,IC50,[1],9 nM
same,EC50,[10],15 nM
CC(C)NC(=O)c1ccc2c(c1)NC(=O)/C2=C(\Nc1ccc(CN2CCCCC2)cc1)c1ccccc1,IC50,[1],1230 nM
same,EC50,[10],1070 nM
O=C1Nc2cc([N+](=O)[O-])ccc2/C1=C(/Nc1ccc(CN2CCCCC2)cc1)c1ccccc1,IC50,[1],7 nM
same,EC50,[2],> 1000 nM
same,EC50,[10],60 nM
O=C1Nc2cc(-n3cccc3)ccc2/C1=C(/Nc1ccc(CN2CCCCC2)cc1)c1ccccc1,IC50,[1],791 nM
same,EC50,[10],585 nM
CC(=O)c1ccc2c(c1)NC(=O)/C2=C(\Nc1ccc(CN2CCCCC2)cc1)c1ccccc1,IC50,[1],1750 nM
CNC(=O)c1ccc2c(c1)NC(=O)/C2=C(\Nc1ccc(CN2CCCCC2)cc1)c1ccccc1,IC50,[1],2100 nM
same,EC50,[10],1910 nM
N#Cc1ccc2c(c1)NC(=O)/C2=C(\Nc1ccc(CN2CCCCC2)cc1)c1ccccc1,IC50,[1],248 nM
same,EC50,[10],281 nM
COC(=O)c1ccc2c(c1)NC(=O)/C2=C(\Nc1ccc(N(C)C(=O)Cn2ccnc2)cc1)c1ccccc1,IC50,[1],6 nM
same,EC50,[10],52 nM
COC(=O)c1ccc2c(c1)NC(=O)/C2=C(\Nc1cccc(C(=O)N(C)CCCN(C)C)c1)c1ccccc1,IC50,[1],248 nM
COC(=O)c1ccc2c(c1)NC(=O)/C2=C(\Nc1ccc(CN(C)C(=O)N(C)C)cc1)c1ccccc1,IC50,[1],61 nM
same,IC50,[32],> 10000 nM
same,IC50,[33],> 10000 nM
same,IC50,[34],> 10000 nM
same,IC50,[35],> 10000 nM
same,IC50,[36],> 10000 nM
same,IC50,[37],> 10000 nM
same,IC50,[11],> 10000 nM
same,EC50,[2],> 1000 nM
same,concentration at 2 h,[38],1250 nM
same,concentration at 24 h,[39],16 nM
same,EC50,[18],> 1000 nM
same,EC50,[19],> 1000 nM
same,T/C,[20],13%
same,T/C,[21],31%
same,T/C,[22],11%
same,IC50,[6],50 nM
same,IC50,[7],20 nM
same,IC50,[8],82 nM
same,IC50,[9],10 nM
same,IC50,[10],22 nM
COC(=O)c1ccc2c(c1)NC(=O)/C2=C(\Nc1ccc(N(CCN(C)C)S(C)(=O)=O)cc1)c1ccccc1,IC50,[1],23 nM
same,EC50,[10],14 nM
COC(=O)c1ccc2c(c1)NC(=O)/C2=C(\NC1CCC(NC(=O)CN(C)C)CC1)c1ccccc1 (stereo not drawn),IC50,[1],> 10000 nM
